The source of these data is PubChem BioAssay AID330 (DTP/NCI, 2004).

The test has as its system P388 leukemia ip, CD2F1 mice, survival T/C. In words: NCI In Vivo Anticancer Drug Screen. Data for tumor model P388 Leukemia (intraperitoneal) in CD2F1 (CDF1) mice. The conditions noted are these: endpoint: median survival time, higher = longer survival. In a few lines:
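Mice carrying the transplanted tumor received test compound or vehicle. Survival was recorded in each group, and the value is the treated-group measurement divided by that of the vehicle-treated control group.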

[1] abbreviates: dose: 60.0 mg/kg/injection, schedule: Q01DX005 (ip), vehicle: Klucel (hydroxypropylcellulose) (HPC).
Where [2] appears, read: dose: 120.0 mg/kg/injection, schedule: Q01DX005 (ip), vehicle: Klucel (hydroxypropylcellulose) (HPC).

Several values for one entry are separate records, joined by “and”; a condition that tells them apart may be missing. Equal values may be shown once. Toxic doses and inconclusive results are not listed.

`CC1(C)OC2CC(=O)OCC23C1=C(O)C(=O)C1(C)C3CCC2(C)C(c3ccoc3)OC(=O)C3OC321` (stereo unspecified): the T/C (dose: 0.5 mg/kg/injection, schedule: Q01DX009 (ip), vehicle: saline + alcohol) is 101 % of control; the T/C (dose: 1.0 mg/kg/injection, schedule: Q01DX009 (ip), vehicle: saline + alcohol) was 104 % of control; the T/C (dose: 2.0 mg/kg/injection, schedule: Q01DX009 (ip), vehicle: saline + alcohol) is 106 % of control; the T/C (dose: 4.0 mg/kg/injection, schedule: Q01DX009 (ip), vehicle: saline + alcohol) was 106 % of control; the T/C (dose: 8.0 mg/kg/injection, schedule: Q01DX009 (ip), vehicle: saline + alcohol) was 101 % of control.

Regarding `CC(CNC(=O)CCOS(C)(=O)=O)NC(=O)CCOS(C)(=O)=O` (stereo unspecified), the T/C (dose: 12.5 mg/kg/injection, schedule: Q04DX003 (ip), vehicle: saline with Tween-80) is 100 % of control; the T/C (dose: 50.0 mg/kg/injection, schedule: Q04DX003 (ip), vehicle: saline with Tween-80) is 154 % of control; the T/C (dose: 100.0 mg/kg/injection, schedule: Q01DX009 (ip), vehicle: saline with Tween-80) is 154 % of control; the T/C (dose: 100.0 mg/kg/injection, schedule: Q04DX003 (ip), vehicle: saline with Tween-80) is 150 % of control; the T/C (dose: 200.0 mg/kg/injection, schedule: Q01DX009 (ip), vehicle: saline with Tween-80) was 177 % of control; the T/C (dose: 200.0 mg/kg/injection, schedule: Q04DX003 (ip), vehicle: saline with Tween-80) was 175 % of control. Moreover, the T/C reads like this: (dose: 400.0 mg/kg/injection, schedule: Q01DX009 (ip), vehicle: saline with Tween-80) 90 % of control; (dose: 400.0 mg/kg/injection, schedule: Q04DX003 (ip), vehicle: saline with Tween-80) 241 % of control.

Regarding `c1ccc2c3c(ccc2c1)OCCOCCOc1ccc2ccccc2c1-c1c(ccc2ccccc12)OCCOCCOc1ccc2ccccc2c1-3`, the T/C (dose: 100.0 mg/kg/injection, schedule: Q04DX002 (ip), vehicle: saline with Tween-80) was 96 % of control; the T/C (dose: 200.0 mg/kg/injection, schedule: Q04DX002 (ip), vehicle: saline with Tween-80) is 89 % of control; the T/C (dose: 400.0 mg/kg/injection, schedule: Q04DX002 (ip), vehicle: saline with Tween-80) is 91 % of control.

`c1ccc(Sc2c(-c3ccccc3)c(-c3ccccc3)c3n2CCC3)cc1`: the T/C by setting is: under setting [1], 86 % of control; under setting [2], 86 % of control.

As for `CC(=O)Nc1ccc(CN2CC(C)N(N)C(C)C2)cc1` (stereo unspecified), the T/C is, setting by setting: (dose: 25.0 mg/kg/injection, schedule: Q04DX003 (ip), vehicle: Klucel (hydroxypropylcellulose) (HPC)) 101 % of control; (dose: 50.0 mg/kg/injection, schedule: Q04DX003 (ip), vehicle: Klucel (hydroxypropylcellulose) (HPC)) 98 % of control; (dose: 100.0 mg/kg/injection, schedule: Q04DX003 (ip), vehicle: Klucel (hydroxypropylcellulose) (HPC)) 95 % of control; (dose: 200.0 mg/kg/injection, schedule: Q04DX003 (ip), vehicle: Klucel (hydroxypropylcellulose) (HPC)) 100 % of control; (dose: 400.0 mg/kg/injection, schedule: Q04DX003 (ip), vehicle: Klucel (hydroxypropylcellulose) (HPC)) 104 % of control.

`NCC(=O)c1ccc2ccccc2c1`: the T/C runs as follows: under setting [1], 105 % of control; under setting [2], 106 % of control.

In the case of `CC(C)Cc1ncc(CC(C)C)n(O)c1=O`, the T/C runs as follows: (dose: 12.5 mg/kg/injection, schedule: Q01DX005 (ip), vehicle: distilled water + Tween-80) 95 % of control; (dose: 25.0 mg/kg/injection, schedule: Q01DX005 (ip), vehicle: distilled water + Tween-80) 103 % of control; (dose: 50.0 mg/kg/injection, schedule: Q01DX005 (ip), vehicle: distilled water + Tween-80) 101 % of control; (dose: 100.0 mg/kg/injection, schedule: Q01DX005 (ip), vehicle: distilled water + Tween-80) 100 % of control.

Turning to `CCO/C(CC#N)=C(/C#N)C(=O)Nc1ccc(OC)cc1`, the T/C (dose: 60.0 mg/kg/injection, schedule: Q01DX005 (ip), vehicle: saline with Tween-80) is 95 % of control; the T/C (dose: 120.0 mg/kg/injection, schedule: Q01DX005 (ip), vehicle: saline with Tween-80) was 93 % of control; the T/C (dose: 240.0 mg/kg/injection, schedule: Q01DX005 (ip), vehicle: saline with Tween-80) is 89 % of control.

Turning to `Cc1c(C)[n+](=O)c2ccc(/C=[N+](\C)[O-])cc2n1[O-]`, the T/C was 98 % of control (dose: 50.0 mg/kg/injection, schedule: Q01DX009 (ip), vehicle: Klucel (hydroxypropylcellulose) (HPC)); 100 % of control (dose: 100.0 mg/kg/injection, schedule: Q01DX009 (ip), vehicle: Klucel (hydroxypropylcellulose) (HPC)); 101 % of control (dose: 200.0 mg/kg/injection, schedule: Q01DX009 (ip), vehicle: Klucel (hydroxypropylcellulose) (HPC)).

As to `CN=C(C)c1c(O)n(-c2ccccc2)[nH]c1=O`, the T/C reads like this: (dose: 100.0 mg/kg/injection, schedule: Q04DX002 (ip), vehicle: Klucel (hydroxypropylcellulose) (HPC)) 96 % of control; (dose: 200.0 mg/kg/injection, schedule: Q04DX002 (ip), vehicle: Klucel (hydroxypropylcellulose) (HPC)) 102 % of control; (dose: 400.0 mg/kg/injection, schedule: Q04DX002 (ip), vehicle: Klucel (hydroxypropylcellulose) (HPC)) 90 % of control.

With `COc1ccc(-c2c(C(N)=O)cnc(C)c2C)c(OCc2ccccc2)c1OC`, the T/C is, setting by setting: (dose: 0.05 mg/kg/injection, schedule: Q01DX009 (ip), vehicle: water) 104 % of control; (dose: 0.1 mg/kg/injection, schedule: Q01DX009 (ip), vehicle: water) 117 % of control; (dose: 0.2 mg/kg/injection, schedule: Q01DX009 (ip), vehicle: water) 104 % of control; (dose: 0.4 mg/kg/injection, schedule: Q01DX009 (ip), vehicle: water) 103 % of control and 117 % of control; (dose: 0.8 mg/kg/injection, schedule: Q01DX009 (ip), vehicle: water) 106 % of control; (dose: 1.6 mg/kg/injection, schedule: Q01DX009 (ip), vehicle: water) 106 % of control. Further, the T/C (dose: 3.2 mg/kg/injection, schedule: Q01DX009 (ip), vehicle: water) is 109 % of control; the T/C (dose: 6.25 mg/kg/injection, schedule: Q01DX009 (ip), vehicle: other) is 98 % of control; the T/C (dose: 6.4 mg/kg/injection, schedule: Q01DX009 (ip), vehicle: water) was 109 % of control; the T/C (dose: 12.5 mg/kg/injection, schedule: Q01DX009 (ip), vehicle: other) is 101 % of control; the T/C (dose: 25.0 mg/kg/injection, schedule: Q01DX009 (ip), vehicle: other) was 103 % of control; the T/C (dose: 50.0 mg/kg/injection, schedule: Q01DX009 (ip), vehicle: other) was 105 % of control. Further, the T/C is, setting by setting: (dose: 100.0 mg/kg/injection, schedule: Q01DX009 (ip), vehicle: other) 105 % of control; (dose: 200.0 mg/kg/injection, schedule: Q01DX009 (ip), vehicle: other) 104 % of control; (dose: 400.0 mg/kg/injection, schedule: Q01DX009 (ip), vehicle: other) 107 % of control.

Take `O=NN(CCCl)C(=O)Nc1cc(=O)[nH]c(SCc2ccccc2)n1`: the T/C is 151 % of control (dose: 10.06 mg/kg/injection, schedule: Q04DX002 (ip), vehicle: Klucel (hydroxypropylcellulose) (HPC)); 158 % of control (dose: 40.25 mg/kg/injection, schedule: Q04DX002 (ip), vehicle: Klucel (hydroxypropylcellulose) (HPC)); 178 % of control (dose: 80.5 mg/kg/injection, schedule: Q04DX002 (ip), vehicle: Klucel (hydroxypropylcellulose) (HPC)); 150 % of control and 158 % of control (dose: 161.0 mg/kg/injection, schedule: Q04DX002 (ip), vehicle: Klucel (hydroxypropylcellulose) (HPC)); 101 % of control (dose: 322.0 mg/kg/injection, schedule: Q04DX002 (ip), vehicle: Klucel (hydroxypropylcellulose) (HPC)).

Turning to `CN1C2=CC3(OC2C(C)(C)c2ccccc21)N(C)c1ccccc1C3(C)C` (stereo unspecified), the T/C was 93 % of control under setting [1]; 92 % of control under setting [2]; 93 % of control (dose: 240.0 mg/kg/injection, schedule: Q01DX005 (ip), vehicle: Klucel (hydroxypropylcellulose) (HPC)).

Take `CC(C)NCC(O)COc1cccc2[nH]c3ccccc3c12` (stereo unspecified): the T/C (dose: 25.0 mg/kg/injection, schedule: Q01DX009 (ip), vehicle: saline with Tween-80) was 99 % of control and the T/C (dose: 50.0 mg/kg/injection, schedule: Q01DX009 (ip), vehicle: saline with Tween-80) was 96 % of control.

On to `CC1(C)CC(OP(=O)(OC2CC(C)(C)N(O)C(C)(C)C2)N2CC2)CC(C)(C)N1O`, for which the T/C reads like this: (dose: 100.0 mg/kg/injection, schedule: Q01DX001 (ip), vehicle: Klucel (hydroxypropylcellulose) (HPC)) 100 % of control; (dose: 200.0 mg/kg/injection, schedule: Q01DX001 (ip), vehicle: Klucel (hydroxypropylcellulose) (HPC)) 97 % of control; (dose: 400.0 mg/kg/injection, schedule: Q01DX001 (ip), vehicle: Klucel (hydroxypropylcellulose) (HPC)) 104 % of control.
